Here are results for four compounds from patent publication US7235534B2, “Antisense strategy to modulate estrogen receptor response (ER α and/or ER β )” (Institut de Cardiologie de Montreal, priority 2001, dated 2007).

In one assay the test system is p42/44 MAPK. As to the kind of experiment: Western blot of p42/44 MAPK phosphorylation in PAEC. The class given is cell-based, porcine. The settings on record: for decrease of p42/44 MAPK phosphorylation induced by 5 min stimulation of 17βE: antagonist 10^−7M 5 min prior to 17βE 10^−8M. As for the experimental part:
Confluent PAEC and PSMC were starved for 7 hours in DMEM and antibiotics. Culture medium was removed, and cells were rinsed twice with ice-cold DMEM. PSMC were incubated on ice in DMEM with or without 17βE (10^−8M) for 30 min, incubated at 37° C. for 5, 10, 15 and 30 min, then brought back on ice. Cell were then rinsed with cold DMEM, incubated on ice in DMEM, bovine serum albumin (1 mg/ml), PDGF-BB (10 ng/ml) for 30 min, incubated at 37° C. for 5 min, and then brought back on ice. […] […] Total proteins were prepared by the addition of 500 μl of lysis buffer containing phenylmethylsulfonyl fluoride 1 mM, leupeptin 10 μg/ml, aprotinin 30 μg/ml, and NaVO3 1 mM (Sigma). Plates were incubated at 4° C. for 30 min and scraped, and the protein concentration was determined with a Bio-Rad protein kit (Bio-Rad, Hercules, Calif.). Same protein quantity for each cell type and condition were dissolved in Laemmli's buffer, boiled for 5 min in reducing conditions, separated by a 10% gradient SDS-PAGE (Protean II kit; Bio-Rad), and transblotted onto a 0.45-μm polyvinylidene difluoride membranes (Millipore Corp., Bedford, Mass.). The membranes were blocked in 5% Blotto-TTBS (5% nonfat dry milk; Bio-Rad), 0.05% Tween 20, 0.15 M NaCl, 25 mM Tris-HCl, pH 7.5) for 1 h at room temperature with gentle agitation and incubated overnight at 4° C. in 0.5% Blotto-TTBS with the addition of an anti-phospho p42/44 MAPK or an anti-phospho p38 MAPK rabbit polyclonal antiserums (α-pp42/44; dilution of 1:10 000, and α-pp38; dilution 1:5000, New England BioLabs, Beverly, Mass.). Membranes were washed with TTBS, and incubated at room temperature with an anti-rabbit IgG antibody coupled to horseradish peroxidase (dilution 1:10 000–1:20 000, Santa Cruz Biotechnology, Santa Cruz, Calif.) in 0.5% Blotto-TTBS for 30 min. […] Kaleidoscope molecular weight and SDS-plyacrylamide gel electrophoresis broad range marker proteins (Bio-Rad) were used as standards for SDS-plyacrylamide gel electrophoresis. Digital image densitometry (PDI Bioscience, Aurora, ON) was performed on x-ray film to determine relative percentages of p42/44 and p38 MAPK phosphorylation.
Confluent PAEC and PSMC were preteated with or without antisense sequences as described above for Western Blot analysis. Cells were rinsed twice with ice-cold DMEM. PSMC and PAEC were stimulated with or without 17βE (10^−8 mol/L) as previously described (Geraldes P). Briefly, PSMC were incubated on ice in DMEM with or without 17βE (10^−8 mol/L) for 30 minutes, incubated at 37° C. for 30 minutes, then brought back on ice. Cells were then rinsed with cold DMEM, incubated on ice in DMEM, bovine serum albumin (1 mg/mL), PDGF-BB (10 ng/mL) for 30 minutes, incubated at 37° C. for 5 and 30 minutes, and then brought back on ice. PAEC were incubated on ice in DMEM with or without 17βE (10^−8 mol/L) for 30 minutes, then incubated at 37° C. for 5 and 30 minutes and brought back on ice. Total proteins were prepared-by the addition of 500 μL of lysis buffer, incubated at 4° C. for 30 minutes and scraped to collect the proteins. Same quantity of protein was separated by a 10% gradient SDS-PAGE (Protean II kit; Bio-Rad), and transblotted onto a 0.45-μm polyvinylidene difluoride membranes (Millipore Corp.). The membranes were blocked for 1 hour at room temperature with gentle agitation and incubated overnight at 4° C. in 0.5% Blotto-TTBS with the addition of an antiphospho p42/44 MAPK or an antiphospho p38 MAPK rabbit polyclonal antiserums (α-pp42/44; dilution of 1:10000, and α-pp38; dilution 1:5 000, New England BioLabs, Beverly, Mass.). Membranes were washed with TTBS, and incubated at room temperature with an anti-rabbit IgG antibody coupled to horseradish peroxidase (dilution 1:10 000–1:20 000, Santa Cruz Biotechnology) in 0.5% Blotto-TTBS for 30 minutes. […] Digital image densitometry (PDI Bioscience) was performed on X-ray film to determine relative phosphorylation of p42/44 and p38 MAPK. […]
A general note: In western blotting, separated proteins are transferred to a membrane and probed.

Assay [1] concerns Porcine smooth muscle cells (PSMC). As to the kind of experiment: Chemotactic assay on PSMC (modified Boyden chamber). The class given is cell-based. The settings on record: for reversal of the anti-chemotactic effect of 17βE on PSMC: antagonist 10^−7M before 17βE 10^−8M, PDGF-BB 10 ng/ml. On the procedure: Cell migration was evaluated using a modified Boyden 48-well microchamber kit (NeuroProbe, Cabin John, MD.). Near confluent EC and PSMC were rinsed with DMEM and trypsinized. Cells were resuspended in DMEM, 5% FBS, and antibiotics, and a cell count was obtained. […] ER antagonists were added 5 minutes before 17βE. Cells were harvested by trypsinization and resuspended in DMEM, 1% FBS, and antibiotics at a concentration of 5×10^5 cells/ml. […] The two sections of the system were separated by a porous polycarbonate filter (5-μm pores), pre-treated with a gelatine solution (1.5 mg/ml), and assembled. Five hours post incubation at 37° C., the nonmigrated cells were scraped with a plastic policeman, and the migrated cells were stained using a Quick-Diff solution. The filter was then mounted on a glass slide, and migrated cells were counted using a microscope adapted to a video camera to obtain a computer-digitized image.
Cell migration was evaluated using a modified Boyden 48-well microchamber kit (NeuroProbe, Cabin John, MD.). Near confluent PAEC and PSMC were rinsed with DMEM and trypsinized. Cells were resuspended in DMEM, 5% FBS, and antibiotics, and a cell count was obtained. PAEC and PSMC were seeded at 2.5×10^5 cells/well of 6-well tissue culture plates; stimulated for 24 hours in DMEM, 5% FBS, and antibiotics with or without antisense oligomers (10^−6 mol/L) and starved for 48 hours in DMEM, 0.1% FBS, and antibiotics with or without antisense oligomers (10^−6 mol/L daily) with or without 17βE (10^−8 mol/L). Cells were harvested by trypsinization and resuspended in DMEM, 1% FBS, and antibiotics at a concentration of 5×10^5 cells/mL. Fifty μL of this cell suspension with or without antisense oligomers (10^−6 mol/L) treated with or without 17βE (10^−8 mol/L) was added in the higher-chamber of the modified Boyden chamber apparatus, and the lower chamber was filled with DMEM, 1% FBS, antibiotics plus the desired concentration of agonist either 17βE (10^−8 mol/L) or platelet-derived growth factor-BB (PDGF-BB). The 2 sections of the system were separated by a porous polycarbonate filter (5-μm pores size), pretreated with a gelatine solution (1.5 mg/mL), and assembled. Five hours postincubation at 37° C., the non-migrated cells were scraped with a plastic policeman, and the migrated cells were stained using a Quick-Diff solution (Shandon Inc). The filter was then mounted on a glass slide, and migrated cells were counted using a microscope adapted to a video camera to obtain a computer-digitized image.

Take `CC/C(=C(\c1ccccc1)c1ccc(OCCN(C)C)cc1)c1ccccc1` [Tam, Tamoxifen]: in the assay on p42/44 MAPK, the “decrease of p42/44 MAPK phosphorylation induced by 5 min stimulation of 17βE” value was found to be 36%. Moreover, the “reversal of the anti-chemotactic effect of 17βE on PSMC” value in assay [1] is “reversed completely”.
In the same order, the values of `CC/C(=C(\c1ccc(O)cc1)c1ccc(OCCN(C)C)cc1)c1ccccc1` [4-OHT, 4-OH-Tamoxifen] are 44% and “reversed completely”.
Turning to `O=C(c1ccc(OCN2CCCCC2)cc1)c1c(-c2ccc(O)cc2)sc2cc(O)ccc12` [Ral, Raloxifen], the “decrease of p42/44 MAPK phosphorylation induced by 5 min stimulation of 17βE” value in the assay with p42/44 MAPK is on record as 66%. Besides, the “reversal of the anti-chemotactic effect of 17βE on PSMC” value in assay [1] is “reversed completely”.
Take `C[C@]12CC[C@@H]3c4ccc(O)cc4CC[C@H]3[C@@H]1CC[C@@H]2O` [17βE, 17-beta-estradiol]: the “increase of p42/44 MAPK phosphorylation” value was found to be 1122% with p42/44 MAPK (17βE 10^−8M, 5 minutes, Example 1); 1074% with p42/44 MAPK (17βE 10^−8M, 10 minutes); 1420% in the assay on p42/44 MAPK (17βE 10^−8M, 15 minutes); 1835% in the assay with p42/44 MAPK (17βE 10^−8M, 30 minutes); 329% in the assay with p42/44 MAPK (17βE 10^−8 mol/L, 5 minutes, Example 2). Also, the “inhibition of the chemotactic effect of PDGF-BB (10 ng/mL) on PSMC” value in assay [1] (17βE 1^−8 mol/L as printed, Example 2) is “inhibited completely”. Further, the “inhibition of the chemotactic effect of PDGF-BB (10 ng/ml) on PSMC” value in assay [1] (17βE 10^−8M, Example 1) is “inhibited completely”.
